Reference: patent US20060093617A1, “Peptides for inducing a CTL and/or HTL response to hepatitis C virus” (Innogenetics, N.V., priority 2004, published 2006)
Where a SMILES comes first, the peptide text is derived from it.

Assays:
B*3501 = B*3501 (Homo sapiens, UniProt P01889, A329T/A93T/A95T/C349S/D201E/D98Y/E176V/E187L/E204Q/E69T/I218V/K202T/L119I/Q94N/R155S/R180L/S121R/S35A/S48A/T118I/V127L/V306I/V36M/Y140S/Y91F); experiment: Competition binding assay using soluble HLA class I; conditions: for Ki: HLA-B3501 section
HLA-Cw06 = molecular target: T1, HLA-Cw06 (Homo sapiens, UniProt P10321, A176E/A330V/C350S/L171W/L180W/L218V/M285V/M309V/M331V/N104K/P208H/Q277E/Q291P/R121W/R243W/S101N/S123Y/S297R/T329A/T363A/V319A/V328M); experiment: HLA class I competition cell-based binding assay
T1 construct: endogenous in cells

HLA-Cw07 = molecular target: T2, HLA-Cw07 (Homo sapiens, UniProt P10321); experiment: HLA class I competition cell-based binding assay
T2 construct: endogenous in cells

DRB1*0101 = molecular target: T3, DRB1*0101 (Homo sapiens, UniProt P01903+P01911, A100R/D57E/F55L/F60I/F76Y/I96L/L162R/M171V/P40L/Q125E/R42F/V115G/Y59C); experiment: Competition binding assay using soluble HLA class II
T3 construct: endogenous in cells; host or cells: cell lysate

DRB1*0301 = molecular target: T4, DRB1*0301 (Homo sapiens, UniProt P01903+P01911, A100K/A102G/A103R/A169T/F55Y/I96L/K41T/L162R/M171V/P40S/Q125H/Q178H/Q39Y/R42S/S66N/T106N/T262R/W38E/Y61H); experiment: as above
T4 construct: endogenous in cells; HLA-DR was extracted from cell lysates on an LB3.1 antibody column

B*0702 = molecular target: T5, B*0702 (Homo sapiens, UniProt P01889); experiment: Competition binding assay using soluble HLA class I
T5 construct: endogenous in cells

DRB1*0401 = molecular target: T6, DRB1*0401 (Homo sapiens, UniProt P01903+P01911, A100K/A169T/F76Y/I96L/K127E/L162R/M171V/N62H/P40V/Q125Y/R42H/S133A/S149N/S66Y/V115G/V209L/W38E); experiment: Competition binding assay using soluble HLA class II; conditions: HLA-DRB1*0401; individual experiment or mean of several
T6 construct: endogenous in cells; host or cells: cell lysate

HLA-A03 = molecular target: T7, HLA-A03 (Homo sapiens, UniProt P04439); experiment: Competition binding assay using soluble HLA class I; conditions: HLA-A1101 section; read-out: binds A0301 (asterisk in Ki column)
T7 construct: endogenous in cells

SMILES: CC[C@H](C)[C@H](NC(=O)[C@H](CCC(N)=O)NC(=O)CNC(=O)CNC(=O)CNC(=O)[C@@H]1CCCN1C(=O)[C@@H](N)Cc1ccccc1)C(=O)N[C@H](C(=O)NCC(=O)O)C(C)C
- Ki (B*3501): 2.6 µM

SMILES: CC[C@H](C)[C@H](NC(=O)[C@@H]1CCCN1C(=O)[C@@H](NC(=O)[C@H](C)NC(=O)[C@H](CCCCN)NC(=O)CNC(=O)[C@H](Cc1ccc(O)cc1)NC(=O)[C@@H](N)Cc1ccccc1)[C@@H](C)CC)C(=O)N[C@@H](CCC(=O)O)C(=O)N[C@H](C(=O)O)C(C)C
- Ki (HLA-Cw06): 5.69 µM
- Ki (HLA-Cw07): 0.031 µM

SMILES: CSCC[C@H](NC(=O)[C@H](CCCNC(=N)N)NC(=O)[C@H](Cc1c[nH]cn1)NC(=O)CN)C(=O)N[C@@H](C)C(=O)N[C@@H](Cc1c[nH]c2ccccc12)C(=O)N[C@@H](CC(=O)O)C(=O)N[C@@H](CCSC)C(=O)N[C@@H](CCSC)C(=O)N[C@@H](CCSC)C(=O)N[C@@H](CC(N)=O)C(=O)N[C@@H](Cc1c[nH]c2ccccc12)C(=O)N[C@@H](CO)C(=O)N1CCC[C@H]1C(=O)N[C@H](C(=O)O)[C@@H](C)O
- IC50 (DRB1*0101): 0.183 µM
- IC50 (DRB1*0301): 0.919 µM

SMILES: CC[C@H](C)[C@H](N)C(=O)N[C@@H](CCCNC(=N)N)C(=O)N[C@@H](CO)C(=O)N[C@@H](CC(C)C)C(=O)N[C@H](C(=O)N[C@@H](CCC(=O)O)C(=O)N[C@@H](CCCNC(=N)N)C(=O)N[C@@H](CC(C)C)C(=O)N[C@@H](Cc1ccc(O)cc1)C(=O)O)[C@@H](C)O
- Ki (HLA-Cw06): 0.318 µM
- Ki (HLA-Cw07): 0.025 µM

SMILES: CC(C)C[C@H](NC(=O)[C@H](CC(C)C)NC(=O)[C@@H]1CCCN1C(=O)[C@@H](NC(=O)[C@@H]1CCCN1C(=O)CNC(=O)[C@H](Cc1c[nH]cn1)NC(=O)[C@@H](N)CC(C)C)[C@@H](C)O)C(=O)N[C@@H](Cc1ccc(O)cc1)C(=O)O
- Ki (HLA-Cw07): 0.031 µM

SMILES: CSCC[C@H](N)C(=O)NCC(=O)N[C@@H](CO)C(=O)N[C@@H](CO)C(=O)N[C@@H](Cc1ccc(O)cc1)C(=O)NCC(=O)N[C@@H](Cc1ccccc1)C(=O)N[C@@H](CCC(N)=O)C(=O)N[C@@H](Cc1ccc(O)cc1)C(=O)O
- Ki (B*3501): 2.61 µM

SMILES: CC[C@H](C)[C@H](NC(=O)[C@@H](N)CC(N)=O)C(=O)N[C@H](C(=O)N[C@@H](CC(=O)O)C(=O)N[C@H](C(=O)N[C@@H](CCC(N)=O)C(=O)N[C@@H](Cc1ccc(O)cc1)C(=O)N[C@@H](CC(C)C)C(=O)N[C@@H](Cc1ccc(O)cc1)C(=O)O)C(C)C)C(C)C
- Ki (HLA-Cw07): 0.056 µM

SMILES: CC(C)[C@H](NC(=O)[C@H](CCCNC(=N)N)NC(=O)[C@H](C)NC(=O)[C@H](C)NC(=O)[C@H](C)NC(=O)[C@H](CC(=O)O)NC(=O)[C@H](CO)NC(=O)[C@H](CCC(=O)O)NC(=O)[C@@H]1CCCN1C(=O)[C@@H](NC(=O)[C@H](Cc1ccc(O)cc1)NC(=O)[C@H](Cc1c[nH]cn1)NC(=O)[C@@H](NC(=O)[C@@H]1CCCN1)[C@@H](C)O)C(C)C)C(=O)N[C@H](C(=O)O)[C@@H](C)O
- IC50 (DRB1*0301): 4.95 µM

SMILES: CC[C@H](C)[C@H](NC(=O)[C@@H]1CCCN1C(=O)[C@H](C)NC(=O)[C@H](CC(C)C)NC(=O)[C@H](CC(C)C)NC(=O)[C@@H](N)CCCNC(=N)N)C(=O)N[C@H](C(=O)N[C@@H](C)C(=O)N[C@@H](Cc1ccc(O)cc1)C(=O)O)[C@@H](C)O
- Ki (HLA-Cw07): 4.82 µM

SMILES: CC(C)C[C@H](NC(=O)[C@H](CCCNC(=N)N)NC(=O)[C@@H](NC(=O)[C@H](CO)NC(=O)[C@@H](NC(=O)[C@H](CCC(=O)O)NC(=O)[C@H](C)NC(=O)[C@@H]1CCCN1C(=O)[C@@H](N)[C@@H](C)O)[C@@H](C)O)C(C)C)C(=O)O
- IC50 (B*3501; Table 18, HLA-B7 binding peptides): 1640 nM
- IC50 (B*0702): 0.375 µM
- Ki (B*0702; Ki (nM), HLA-B0702 section): 375 nM
- Ki (B*0702; binds B0702 with Ki < 1000 nM (asterisk), asterisk in the HLA-B3501 section): < 1000 nM

SMILES: CC(C)C[C@H](NC(=O)[C@H](Cc1ccccc1)NC(=O)[C@H](CCCCN)NC(=O)CNC(=O)[C@H](Cc1ccc(O)cc1)NC(=O)[C@@H](NC(=O)[C@H](CO)NC(=O)[C@H](Cc1ccc(O)cc1)NC(=O)[C@@H](N)[C@@H](C)O)[C@@H](C)O)C(=O)O
- Ki (HLA-Cw06): 4.86 µM
- Ki (HLA-Cw07): 0.239 µM

SMILES: CSCC[C@H](NC(=O)[C@H](CC(C)C)NC(=O)[C@H](C)NC(=O)[C@H](CC(=O)O)NC(=O)[C@@H](NC(=O)[C@H](C)NC(=O)[C@@H](NC(=O)[C@@H](NC(=O)[C@@H](NC(=O)[C@@H](N)C(C)C)C(C)C)C(C)C)C(C)C)[C@@H](C)O)C(=O)N[C@H](C(=O)NCC(=O)N[C@@H](Cc1ccc(O)cc1)C(=O)N[C@H](C(=O)NCC(=O)O)[C@@H](C)O)[C@@H](C)O
- IC50 (DRB1*0301): 0.093 µM

SMILES: N=C(N)NCCC[C@H](NC(=O)[C@H](CCC(N)=O)NC(=O)[C@@H](N)CC(=O)O)C(=O)N1CCC[C@H]1C(=O)N[C@@H](Cc1ccc(O)cc1)C(=O)N[C@@H](CS)C(=O)N[C@@H](Cc1c[nH]c2ccccc12)C(=O)N[C@@H](Cc1c[nH]cn1)C(=O)N[C@@H](Cc1ccc(O)cc1)C(=O)O (H-DQRPYCWHY-OH; N-terminus and C-terminus assumed)
- Ki (HLA-Cw07): 0.71 µM

SMILES: C[C@H](NC(=O)[C@H](CCC(=O)O)NC(=O)[C@@H]1CCCN1C(=O)[C@H](Cc1c[nH]cn1)NC(=O)[C@H](CCCCN)NC(=O)[C@H](CCCNC(=N)N)NC(=O)[C@@H](N)Cc1ccccc1)C(=O)N[C@H](C(=O)N[C@@H](Cc1ccc(O)cc1)C(=O)O)[C@@H](C)O (H-FRKHPEATY-OH; N-terminus and C-terminus assumed)
- Ki (HLA-Cw07): 0.0002 µM

SMILES: CC(C)C[C@H](NC(=O)[C@H](CCCNC(=N)N)NC(=O)[C@@H]1CCCN1C(=O)CN)C(=O)NCC(=O)N[C@H](C(=O)N[C@@H](CCCNC(=N)N)C(=O)N[C@@H](C)C(=O)N[C@H](C(=O)N[C@@H](CCCNC(=N)N)C(=O)N[C@@H](CCCCN)C(=O)N[C@H](C(=O)N[C@@H](CO)C(=O)N[C@@H](CCC(=O)O)C(=O)N[C@@H](CCCNC(=N)N)C(=O)O)[C@@H](C)O)[C@@H](C)O)C(C)C (H-GPRLGVRATRKTSER-OH; N-terminus and C-terminus assumed)
- IC50 (DRB1*0301): 18.9 µM

SMILES: CC[C@H](C)[C@H](NC(=O)[C@H](CC(C)C)NC(=O)[C@H](CCCNC(=N)N)NC(=O)[C@H](C)NC(=O)[C@@H]1CCCN1C(=O)[C@H](CCCCN)NC(=O)[C@H](CCCNC(=N)N)NC(=O)CN)C(=O)N[C@H](C(=O)N[C@@H](Cc1ccccc1)C(=O)O)C(C)C (H-GRKPARLIVF-OH)
- Ki (HLA-Cw06): 8.96 µM
- Ki (HLA-Cw07): 0.753 µM

SMILES: CC(C)C[C@H](NC(=O)[C@H](C)NC(=O)CNC(=O)[C@H](C)NC(=O)[C@@H](NC(=O)CN)C(C)C)C(=O)N[C@H](C(=O)N[C@@H](C)C(=O)N[C@@H](Cc1ccccc1)C(=O)O)C(C)C (H-GVAGALVAF-OH; N-terminus and C-terminus assumed)
- Ki (HLA-Cw07): 6.16 µM

SMILES: CC(C)C[C@H](NC(=O)[C@@H](NC(=O)[C@@H](NC(=O)[C@@H](N)CC(C)C)C(C)C)C(C)C)C(=O)N[C@@H](C)C(=O)N[C@H](C(=O)N[C@@H](C)C(=O)N[C@H](C(=O)N1CCC[C@H]1C(=O)N1CCC[C@H]1C(=O)NCC(=O)N[C@@H](CO)C(=O)N[C@H](C(=O)N[C@H](C(=O)N[C@H](C(=O)O)C(C)C)[C@@H](C)O)C(C)C)[C@@H](C)O)[C@@H](C)O (H-LVVLATATPPGSVTV-OH; N-terminus and C-terminus assumed)
- IC50 (DRB1*0101): 0.073 µM
- IC50 (DRB1*0401): 0.004 µM
- IC50 (DRB1*0301): 4.23 µM

SMILES: CSCC[C@H](NC(=O)CNC(=O)[C@H](CCC(=O)O)NC(=O)[C@H](CC(N)=O)NC(=O)CNC(=O)[C@H](Cc1ccc(O)cc1)NC(=O)[C@@H](N)CC(C)C)C(=O)NCC(=O)N[C@@H](Cc1c[nH]c2ccccc12)C(=O)N[C@@H](C)C(=O)O (H-LYGNEGMGWA-OH; N-terminus and C-terminus assumed)
- Ki (HLA-Cw07): 5.11 µM

SMILES: CC[C@H](C)[C@H](NC(=O)[C@@H]1CCCN1C(=O)[C@H](CCC(N)=O)NC(=O)[C@@H](N)CCCNC(=N)N)C(=O)N1CCC[C@H]1C(=O)N[C@@H](CCCCN)C(=O)N[C@@H](C)C(=O)N[C@@H](CCCNC(=N)N)C(=O)N[C@@H](CCCNC(=N)N)C(=O)O (H-RQPIPKARR-OH)
- Ki (HLA-A03): < 1 µM

SMILES: CC(C)C[C@H](NC(=O)[C@@H](N)Cc1ccc(O)cc1)C(=O)N[C@@H](CC(C)C)C(=O)N1CCC[C@H]1C(=O)N[C@@H](CCCNC(=N)N)C(=O)N[C@@H](CCCNC(=N)N)C(=O)NCC(=O)N1CCC[C@H]1C(=O)N[C@@H](CCCNC(=N)N)C(=O)O (H-YLLPRRGPR-OH)
- Ki (HLA-A03): < 1 µM

SMILES: CC(C)C[C@H](NC(=O)[C@@H](NC(=O)CNC(=O)[C@H](CO)NC(=O)[C@H](C)NC(=O)[C@H](CCCNC(=N)N)NC(=O)[C@H](CS)NC(=O)[C@H](CCCNC(=N)N)NC(=O)[C@H](CCCNC(=N)N)NC(=O)[C@@H](N)Cc1ccc(O)cc1)C(C)C)C(=O)O (H-YRRCRASGVL-OH)
- Ki (HLA-Cw07): 0.083 µM

SMILES: CC[C@H](C)[C@H](NC(=O)[C@@H](NC(=O)[C@H](CO)NC(=O)[C@@H](NC(=O)[C@H](CC(=O)O)NC(=O)[C@H](CC(C)C)NC(=O)CNC(=O)[C@H](CCCNC(=N)N)NC(=O)[C@H](Cc1ccc(O)cc1)NC(=O)[C@@H](N)Cc1ccc(O)cc1)C(C)C)C(C)C)C(=O)O (H-YYRGLDVSVI-OH)
- Ki (HLA-Cw07): 0.087 µM
